From patent US8846626B2, “Drug composition for treating chronic liver disease and its application” (Shuguang Hospital Affiliated with Shanghai University of …, priority 2010, dated 2014) come the findings set out here.

For experiment [1], the system named is DMN-induced rat liver fibrosis model. Put plainly: DMN-induced rat liver fibrosis model, orthogonal design. It counts as in vivo, Wistar male rats. To be noted: result in words; compared with original astragalus soup.
Experiment [2] relates to rats of bile duct ligation. In words: Bile duct ligation (BDL) rat liver fibrosis model. It counts as in vivo, SD male rats. Conditions: BDL 4 weeks; for Hyp (liver tissue Hyp content): intragastric once daily for 3 weeks from week 2; for Hyp (liver tissue Hyp content) / biliary liver fibrosis scores (integral): x±s. An excerpt: Effect of active component compatibility of Astragalus soup of anti-hepatic fibrosis for rats of bile duct ligation
83 SD male rats, SPF grade, weighing 200˜220 g, by the Shanghai Experimental Animal Center of Chinese Academy of Sciences, Certificate of Conformity: SCXK (Shanghai) 2010-0005, fed on the Shanghai Medical University Experimental Animal Center, free access to water.
Model rats (75 rats) are cut along the ventral midline, exposing the common bile duct, conversely injected hardener into hilus hepatis, ligating proximal and distal ends of the common bile duct, cutting the middle, closing the abdomen for 4 weeks. Sham-operated rats (8 rats) only have abdomen cut, and closed after freeing the common bile duct.
Starting from the first day of 2nd week of modeling, the model rats were randomly divided into 5 groups of astragalus soup, A/B combination, A alone, B alone, and UDCA, each group has 12 rats. While continuing modeling, the groups of administration are intervened by eight times of clinical dose amount of a 65 kg adult body weight. Before using, the drug compositions of astragalus soup, A/B combination, A alone, B alone, and UDCA (UDCA: 80 mg·kg^−1·d^−1, ig) are respectively diluted with 10 ml of distilled water, and is processed with intragastric administration according to 10 ml/kg rat body weight dose, once daily for 3 weeks. And sham-operation control rats (8) and model control group (15) are set; rats in the normal group and the model control group are processed with intragastric administration by the same volume of distilled water.
At the end of 4th week, rats are executed to obtain test samples. HE staining and collagen staining of liver tissue, liver tissue Hyp content, serum liver function: ALT, aspartate aminotransferase, AST, and activity of alkaline phosphatase, ALP, albumin, Alb, and total bilirubin, TBil content.

Experiment [3] deals with DMN-induced rat liver fibrosis model. In words: DMN-induced rat liver fibrosis model, orthogonal design. The experiment is classed as in vivo, Wistar male rats. An excerpt: The DMN-induced rat liver fibrosis model and analysis of orthogonal design is used to obtain the optimal ratio of the composition to lower collagen content in the liver.
160 Wistar male rats, (40 in normal group, 120 in the model group), clean level, body weight (150±10) g, provided by the Shanghai Experimental Animal Center of Chinese Academy of Sciences, and is fed, modeled, and observed in Clean Animal room of Shanghai Medical University Experimental Animal Center, free access to water.
Astragalus Astragalosides and Glycyrrhiza Acid are mixed by weight ratio 3:1, 4:1, 5:1 and 6:1, drug composition A+B in different proportions are randomly selected for subsequent experiments.
Referring to Ala-Kokko method of modeling (Ala-Kokko L, Pihlajaniemi T, Myers J C et al. Gene expression of type I, III and IV collagens in liver fibrosis induced by dimethylnitrosamine in the rat. Biochem J 1987; 244: 75-9.) DMN is diluted with saline into 0.5% solution, in the model group, 120 rats are intraperitoneally injected by […] dose, once per day, on the beginning 3 days of a week, for 4 weeks. In normal control group, 40 rats are intraperitoneally injected with normal saline of same dose.
Respectively at the end of three days of modeling, the end of two weeks of modeling, the end of three weeks of modeling, and the end of four weeks of modeling, 10 normal rats, 10 model rats are observed as a model of dynamic observation. Starting from the end of 2 weeks of modeling, the model rats were randomly divided into 1-6 groups of orthogonal design and model group, each having 10 rats. While continuing modeling, the groups of orthogonal design are intervened by eight times of clinical dose amount of a 65 kg adult body weight, administrated respectively in accordance with design amount. Before using, the drug composition is diluted with 10 ml of distilled water, and is processed with intragastric administration according to 10 ml/kg rat body weight dose, once daily for 2 weeks. And normal control rats (10) and model control group (10) are set; rats in the normal group and the model control groups are processed with intragastric administration by the same volume of distilled water.
Astragalus glycosides A, Glycyrrhiza Acid, B, and drugcomposition A+B are factors for evaluation, each factor were set from two levels (level 1=administration, level 2=no), to obtain the orthogonal design. Model groups and normal groups are set.
Measurement data is expressed as x±s, the SAS 9.1.2, DAS 2.1.1 and SPSS16.0 statistical software are used to process data, and single-factor analysis of variance is used for comparisons between multiple groups.

Take `CC1(C)[C@@H](O[C@H]2O[C@H](C(=O)O)[C@@H](O)[C@H](O)[C@H]2O[C@@H]2O[C@H](C(=O)O)[C@@H](O)[C@H](O)[C@H]2O)CC[C@]2(C)[C@H]3C(=O)C=C4[C@@H]5C[C@@](C)(C(=O)O)CC[C@]5(C)CC[C@@]4(C)[C@]3(C)CC[C@@H]12` [B, Glycyrrhiza Acid]: the “reduces generating of TGF-β1” value in experiment [1] is on record as “significantly better than the original astragalus soup”. In experiment [2], the “Hyp (liver tissue Hyp content)” value is recorded as 772.00 ± 86.81^$ μg/g, wet liver weight; the “biliary liver fibrosis scores (integral)” value is 6.50 ± 0.84^$; the “serum liver function ALP” value is given as 77.22 ± 4.05 K/100 ml; the “serum liver function ALT” value is 26.66 ± 7.89 U/L. Also, in experiment [2], the “serum liver function AST” value is recorded as 93.67 ± 14.46 U/L, the “serum liver function Alb” value is listed as 25.07 ± 5.18 g/L and the “serum liver function TBil” value is given as 67.35 ± 7.39^$ μmol/L. Further, the “Hyp (hydroxyproline content in liver tissue)” value in experiment [3] (DMN modeling 4 weeks, intragastric once daily for 2 weeks from end of week 2, x±s) worked out at 595.74 ± 109.74 µg/g. Further, the “hyperplasia stages of rat liver collagen: stage 0” value in experiment [3] (number of rats at stage 0, DMN 4 weeks) was 0. Further, in experiment [3] (number of rats at stage I, DMN 4 weeks), the “hyperplasia stages of rat liver collagen: stage I” value came out at 0. In addition, the “hyperplasia stages of rat liver collagen: stage II” value in experiment [3] (number of rats at stage II, DMN 4 weeks) is reported as 5. The “hyperplasia stages of rat liver collagen: stage III” value in experiment [3] (number of rats at stage III, DMN 4 weeks) turned out to be 4. Moreover, the “BMP-7 mRNA, protein and protein expression of P-Smad1/5/8 in liver tissue” value in experiment [3] (result in words, liver fibrosis in rat liver tissues by DMN) was “significantly increase”. Further, in experiment [3] (serum, DMN 4 weeks, x±SD), the “serum liver function ALP” value was 38.77 ± 17.84 K/100 ml, the “serum liver function ALT” value is 55.18 ± 17.12 U/L, the “serum liver function AST” value was 76.61 ± 14.09^ U/L and the “serum liver function Alb” value turned out to be 23.11 ± 5.52 g/L. In addition, the “serum liver function TBil” value in experiment [3] (serum, DMN 4 weeks, x±SD) stood at 10.23 ± 5.42 µmol/L.

For `C[C@H](CCC(=O)O)[C@H]1CC[C@H]2[C@@H]3[C@@H](O)C[C@@H]4C[C@H](O)CC[C@]4(C)[C@H]3CC[C@]12C` [UDCA, Ursodeoxycholic acid], in experiment [2], the “Hyp (liver tissue Hyp content)” value is 790.16 ± 129.85^$$ μg/g, wet liver weight; the “biliary liver fibrosis scores (integral)” value was 6.83 ± 0.75^$$; the “serum liver function ALP” value was 79.01 ± 5.80 K/100 ml; the “serum liver function ALT” value was 28.79 ± 8.61 U/L. Moreover, in experiment [2], the “serum liver function AST” value is given as 102.80 ± 26.01 U/L, the “serum liver function Alb” value was 24.20 ± 3.64 g/L and the “serum liver function TBil” value is 67.60 ± 9.62^$ μmol/L.
